PMC6677016, “Biochemical and structural explorations of α-hydroxyacid oxidases reveal a four-electron oxidative decarboxylation reaction” (Acta Crystallographica. Section D, Structural Biology, 2019)
Substitutions are numbered along the chain they refer to. Names and notes keep the numbering of the source.

How the values were obtained:
[1] = target: T1, p-Hydroxymandelate oxidase (Hmo) (Amycolatopsis orientalis, UniProt O52792); assay: crystal structure ([…] Å); format: binding
T1 construct: N-terminally His6-tagged protein

[2] = target: T1, p-Hydroxymandelate oxidase (Hmo); assay: crystal structure ([…] Å); format: binding; remark: listed apart in the source
[3] = target: T1, p-Hydroxymandelate oxidase (Hmo); assay: crystal structure ([…] Å) and ITC; format: binding
[4] = target: T2, p-Hydroxymandelate oxidase (Hmo) Y128F mutant (Amycolatopsis orientalis, UniProt O52792, Y128F); assay: crystal structure ([…] Å) and ITC; format: binding
T2 construct: N-terminally His6-tagged protein
T2 sequence (O52792 1-357 Y128F): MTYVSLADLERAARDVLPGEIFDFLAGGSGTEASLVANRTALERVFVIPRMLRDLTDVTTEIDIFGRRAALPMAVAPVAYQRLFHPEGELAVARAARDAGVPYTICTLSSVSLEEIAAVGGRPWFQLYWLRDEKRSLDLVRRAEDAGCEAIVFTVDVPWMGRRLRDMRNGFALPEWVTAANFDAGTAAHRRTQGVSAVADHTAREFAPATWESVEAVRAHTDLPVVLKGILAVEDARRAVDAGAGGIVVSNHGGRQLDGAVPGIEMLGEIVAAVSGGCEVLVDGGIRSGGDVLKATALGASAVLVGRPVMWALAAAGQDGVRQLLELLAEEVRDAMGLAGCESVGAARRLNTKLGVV

[5] = target: T2, p-Hydroxymandelate oxidase (Hmo) Y128F mutant; assay: crystal structure ([…] Å); format: binding
[6] = target: T2, p-Hydroxymandelate oxidase (Hmo) Y128F mutant; assay: crystal structure ([…] Å); format: binding; remark: listed apart in the source
[7] = target: T1, p-Hydroxymandelate oxidase (Hmo); assay: crystal structure ([…] Å); format: binding; remark: listed apart in the source
[8] = target: T2, p-Hydroxymandelate oxidase (Hmo) Y128F mutant; assay: crystal structure ([…] Å); format: binding; remark: listed apart in the source
[9] = target: the molecule itself; assay: crystal structure; hanging-drop vapor diffusion at 20°C, 35% Tascimate, 0.1 M bis-Tris propane pH 7.0; space group I422, one chain in the asymmetric unit, dimer by a crystallographic twofold axis
purified protein = substrate: O=C(O)[C@@H](O)c1ccccc1; assay: purified protein; details: FMN anchored by Tyr128, Arg163, His252 and Arg255; α-H points towards N5 of the isoalloxazine ring

## O=C(O)[C@@H](O)c1ccc(O)cc1 [4HSMA, 4-hydroxy-(S)-mandelate]
[1]
  crystal structure (1.32 Å): complex with 4-hydroxy-(S)-mandelate, 5zzq

## O=C(O)c1ccccc1 [BA, benzoate]
[2]
  crystal structure (1.40 Å): complex with benzoate, 5zzs

## O=C(O)C(=O)c1ccccc1 [BF, benzoylformate]
[3]
  Kd: 1900 µM
[4]
  Kd: 1400 µM

## O=C(O)C(=O)Cc1ccccc1 [PPY, phenylpyruvate]
[5]
  crystal structure (1.45 Å): The Y128F mutant liganded with phenylpyruvate, an oxidized product, when soaked with phenyllactate

## O=C(O)[C@H](O)c1ccccc1 [RMA, (R)-mandelate]
[6]
  crystal structure (1.50 Å): When the Y128F mutant is bound by (R)-mandelate, the structural conformation is similar to that of (S)-mandelate

## C[C@H](C(=O)O)c1ccccc1 [SPPA, (S)-2-phenylpropionate]
[7]
  crystal structure (1.60 Å): (S)-2-phenylpropionate (inhibitor) all adopt a ‘V’ conformation with the carboxyl group orthogonal to the plane of the phenyl ring
[8]
  crystal structure (1.65 Å): complex with 2-phenylpropanoate, 6a0d

B1: p-Hydroxymandelate oxidase (Hmo) from Amycolatopsis orientalis, wild type (enzyme)
chain: T2 sequence (O52792 1-357 Y128F)
notes: p-hydroxymandelate oxidase (Hmo, orf22), amplified from Amycolatopsis orientalis genomic DNA and subcloned into pET-28a(+) (NdeI/XhoI); one chain in the asymmetric unit, the dimer made by a crystallographic twofold axis; also called (S)-p-hydroxymandelate oxidase; WT Hmo; source: E. coli BL21(DE3), purified (Ni-NTA, size-exclusion chromatography)
[9]
  stoichiometry N: 2
Purified protein
  Km: 160 µM

B2: p-Hydroxymandelate oxidase (Hmo) Y128F mutant (enzyme, Amycolatopsis orientalis)
chain: T2 sequence (O52792 1-357 Y128F) with Y128F
notes: p-hydroxymandelate oxidase (Hmo, orf22) of Amycolatopsis orientalis in pET-28a(+), point mutant made by QuikChange on the wild-type hmo gene; Purified by the same protocol as wild-type Hmo; source: E. coli BL21(DE3), purified (Ni-NTA, size-exclusion chromatography)
[9]
  stoichiometry N: 2
